Reference: US20120244226A1, “TREATMENT COMPOSITION AND METHOD” (DEC INTERNATIONAL NZ LIMITED, priority 2009, published 2012)
Entries after “also recorded” stand apart in the source; their conditions may differ.

Tests used:
[1] = tested on: interleukin-6 (IL-6) produced by LPS activated neutrophils; assay: IL-6 production by LPS activated neutrophils (ELISA); type: cell-based, rat; settings: for effect on IL-6, in words / inhibition of IL-6 production: over the concentrations tested; for inhibition of IL-6 production: concentration not given
Method: (§1) The anti-inflammatory properties of the cationic fraction, IDP, and the combination of IDP with chondroitin and glucosamine were determined by measuring their ability to inhibit the production of the inflammatory compounds, tumor necrosis factor-α (TNF-α) and interleukin-6 (IL-6) produced by LPS activated neutrophils. […] Neutrophils were isolated from rat blood and incubated in the presence of LPS. LPS is derived from bacterial cell walls and is used to mimic a 'bacterial infection'. […] Two of these cytokine are TNF-α and IL-6. The concentrations of both cytokines produced by neutrophils exposed to LPS and the various test substances are summarised graphically in FIGS. 1 and 2 respectively. […] Aliquots from each set of triplicates were combined, and duplicates assayed for cytokine concentrations. The plate blank was subtracted from each individual data point. A VersaMax 96-well plate reader was used to colorimetrically assess the production of TNF-α and IL-6 as determined by the ELISA, using Rat TNF-α ELISA kit, R&D Systems, Cat # RTA00, and Rat IL-6 ELISA kit, R&D Systems, Cat # […]. The average cytokine concentration, standard deviation and standard error were calculated for each data set (sample and concentration). Preliminary statistical significance was assessed using independent Student t-tests at α≦0.05.

[2] = tested on: tumor necrosis factor-α (TNF-α) produced by LPS activated neutrophils; assay: TNF-α production by LPS activated neutrophils (ELISA); type: cell-based, rat
Method: as §1

[3] = 300 μg/ml, relative to LPS only control
[4] = Rattus norvegicus, Neutrophil, 100 μg/ml, relative to LPS only control
[5] = Rattus norvegicus, Neutrophil, 300 μg/ml, relative to LPS only control
[6] = Rattus norvegicus, Neutrophil, read-out: IL-6 % Inhibition
[7] = Rattus norvegicus, Neutrophil, read-out: TNF-α % Inhibition
[8] = Rattus norvegicus, Neutrophil, 4 μg/ml, relative to LPS only control
[9] = Rattus norvegicus, Neutrophil, 12 μg/ml, relative to LPS only control
[10] = Rattus norvegicus, Neutrophil, 1 μg/ml, relative to LPS only control
[11] = Rattus norvegicus, Neutrophil, 10 μg/ml, relative to LPS only control

## CC(=O)Oc1ccccc1C(=O)O [Aspirin, acetylsalicylic acid]
[1]
  dose response on IL-6, in words: characteristic dose response
  effect on IL-6, in words: reducing both TNF-α and IL-6 levels significantly
[1]; 100 μg/ml
  IL-6: 63.2 pg/mL
[1]; 300 μg/ml
  IL-6: 0 pg/mL
[1]; [3]
  IL-6 % Inhibition: completely inhibited
[1]; [4]
  inhibition at 100 µg/mL: 78.7%
[1]; [5]
  inhibition at 300 µg/mL: 100%
[2]
  dose response on TNF-α, in words: characteristic dose response
[2]; 100 μg/ml
  TNF-α: 159.17 pg/mL
[2]; 300 μg/ml
  TNF-α: 99.45 pg/mL
[2]; [3]
  TNF-α % Inhibition: 63.9%
[2]; [4]
  inhibition at 100 µg/mL: 42.2%
[2]; [5]
  inhibition at 300 µg/mL: 64%
[2]; over the concentrations tested
  effect on TNF-α, in words: reducing both TNF-α and IL-6 levels significantly

## CCN(CC)CCCC(C)Nc1ccnc2cc(Cl)ccc12 (stereo not shown) [Chloroquine]
[1]; 50 μM
  IL-6: 0 pg/mL
[1]; 100 μM
  IL-6: 0 pg/mL
[1]; [6]
  inhibition at 50 µM: 100%
  inhibition at 100 µM: 100%
[1]
  effect on IL-6, in words: completely inhibiting; also recorded: completely inhibited
[2]; 50 μM
  TNF-α: 0 pg/mL
[2]; 100 μM
  TNF-α: 0 pg/mL
[2]; [7]
  inhibition at 50 µM: 100%
  inhibition at 100 µM: 100%
[2]; over the concentrations tested
  effect on TNF-α, in words: completely inhibiting; also recorded: completely inhibited

## COc1cc(/C=C/C(=O)CC(=O)/C=C/c2ccc(O)c(OC)c2)ccc1O [Curcumin, curcumin]
[1]
  dose response on IL-6, in words: no apparent dose effect
  effect on IL-6, in words: close to complete inhibition
  inhibition of IL-6 production: 90%
[1]; 4 μg/ml
  IL-6: 38.65 pg/mL
[1]; 12 μg/ml
  IL-6: 31.14 pg/mL
[1]; [8]
  inhibition at 4 µg/mL: 87%
[1]; [9]
  inhibition at 12 µg/mL: 89.5%
[2]
  dose response on TNF-α, in words: no apparent dose effect
[2]; 4 μg/ml
  TNF-α: 146.71 pg/mL
[2]; 12 μg/ml
  TNF-α: 180.66 pg/mL
[2]; [8]
  inhibition at 4 µg/mL: 46.7%
[2]; [9]
  inhibition at 12 µg/mL: 34.4%
[2]; over the concentrations tested, concentration not given
  inhibition of TNF-α production: approximately 50%

## O=C(O)Cc1ccccc1Nc1c(Cl)cccc1Cl [Diclofenac]
[1]
  dose response on IL-6, in words: inverse dose response
[1]; 1 μg/ml
  IL-6: 78.39 pg/mL
[1]; 10 μg/ml
  IL-6: 90.55 pg/mL
[1]; 100 μg/ml
  IL-6: 185.71 pg/mL
[1]; [10]
  inhibition at 1 µg/mL: 73.6%
[1]; [11]
  inhibition at 10 µg/mL: 69.5%
[1]; [4]
  inhibition at 100 µg/mL: 37.4%
[1]; listed as Voltaren (Diclofenac)
  inhibition of IL-6 production: 74-38%
[2]
  dose response on TNF-α, in words: inverse dose response
[2]; 1 μg/ml
  TNF-α: 132.01 pg/mL
[2]; 1 μg/ml, relative to LPS only control
  TNF-α % Inhibition: 52.1%
[2]; 10 μg/ml
  TNF-α: 151.97 pg/mL
[2]; 100 μg/ml
  TNF-α: 342.46 pg/mL
  effect on TNF-α, in words: appeared to stimulate TNF-α
[2]; 100 μg/ml, listed as Voltaren (Diclofenac)
  TNF-α: 342 pg/mL
[2]; [10]
  inhibition at 1 µg/mL: 52%
[2]; [11]
  inhibition at 10 µg/mL: 44.8%
[2]; [4]
  inhibition at 100 µg/mL: -24.4%
